Where two headings read alike, the source gives them in different places.
What was measured:
[1] = system: colorectal carcinoma cell line HT29; experiment: Cell viability assay, HT29; type: cell-based; conditions: Homo sapiens, HT-29; HT29, 72 hours from plating (48 hours from compound administration)
Procedure: (§1) Cell viability assays were conducted against colorectal carcinoma cell line HT29. Cells were plated in wells and at 24 hours after plating, compounds were added to determine their effect on cell viability at various dosages. After 48 hours from compound administration, the cell viability was determined and the IC50 values were calculated. […] FIG. 4B illustrates the results of another cell viability measurement and IC50 value for Compound 1 assessed by ATP abundance on HT29 at 5 days.

[2] = biological target: GST-tagged full-length human CK1α (Homo sapiens (Human), UniProt P48729); experiment: Kinase enzymatic assay, mobility shift on LabChip system (AC50); type: biochemical; conditions: mean AC50; 5 μM ATP; 1 μM Profiler Pro FL-Peptide 16 substrate
Procedure: (§2) Enzymatic assays were performed using a mobility shift assay on the LabChip system. Purified kinase protein was incubated with ATP, substrate, and assay buffer (20 mM Hepes—pH 7.5; 5 mM MgCl2, and 0.01% Triton X-100). The assay reaction was initiated with 5 μM ATP and with each compound present. Compounds were tested at the KM,ATP for the protein target (GST-tagged full-length human CK1α, available from Carna Biosciences, Japan) or over a range of ATP concentrations between 5 μM and 9 μM. […] AC50 values were determined using phosphorylated and unphosphorylated substrates.

CSNK1A1 [3] = biological target: T1, CSNK1A1 (Homo sapiens (Human), UniProt P48729); experiment: Kinase enzymatic IC50 (Carna Biosciences mobility shift assay); type: biochemical
Procedure: as §2

protein kinase A (PKA) = conditions: range stated jointly for PKA and insulin receptor kinase; cited from earlier work
insulin receptor kinase = insulin receptor kinase (Homo sapiens (Human), UniProt P06213); conditions: range stated jointly for PKA and insulin receptor kinase; cited from earlier work
HT-29 = experiment: Cell viability by ATP abundance at 5 days (Cell Titer Glo); type: cell-based
Procedure: In addition to its role as a target in hematologic malignancies, CSNK1A1 expression is also essential to certain epithelial cancer cell lines. […] Results from each independent RNA interference construct were summarized into a single gene-level score, and the colorectal distribution of sensitivities was evaluated against the other lineages by the Mann-Whitney test as shown in FIG. 4A. […] Cell viability was assessed by ATP abundance at 5 days using the Cell Titer Glo assay.
as §1

CSNK1D = CSNK1D (Homo sapiens (Human), UniProt P48730); experiment: Kinomescan competition binding assay, confirmatory Kd; conditions: confirmatory testing
From the text: (§3) The Kinomescan assay is a site-directed small molecule competition binding assay to quantitatively measure interactions between test compounds and more than 450 kinase assays. The assay employs DNA-tagged kinase proteins and a bead-immobilized kinase ligand. Active test compounds compete with the immobilized ligand and decrease the amount of bead-bound kinase. The assay result is detected using a multiplex quantitative PCR approach.

[4] = system: more than 450 kinase assays; experiment: Kinome-wide profiling using the Kinomescan assay; type: binding
From the text: as §3

CSNK1A1 [5] = biological target: T1, CSNK1A1; experiment: Kinomescan competition binding assay, confirmatory Kd
From the text: as §3, with “Active test compounds compete with the immobilized ligand and decrease the amount of bead-bound kinase.” left out

[6] = Table 1, CSNK1A1 inhibitors, read-out: IC50
[7] = known inhibitors, background text (rounded Table 1 values), read-out: IC50 against CSNK1A1

Sequence of GST-tagged full-length human CK1α (P48729 whole entry): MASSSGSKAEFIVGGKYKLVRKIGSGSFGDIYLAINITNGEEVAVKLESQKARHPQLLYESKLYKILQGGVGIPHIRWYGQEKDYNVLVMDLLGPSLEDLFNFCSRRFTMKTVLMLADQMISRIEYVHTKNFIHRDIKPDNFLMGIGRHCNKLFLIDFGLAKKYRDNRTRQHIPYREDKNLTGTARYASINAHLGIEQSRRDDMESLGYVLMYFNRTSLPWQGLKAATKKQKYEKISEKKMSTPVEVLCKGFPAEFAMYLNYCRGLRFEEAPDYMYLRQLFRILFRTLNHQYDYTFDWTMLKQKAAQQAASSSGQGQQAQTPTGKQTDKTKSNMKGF
T1 sequence (P48729 whole entry): as above
Sequence of CSNK1D (P48730 whole entry): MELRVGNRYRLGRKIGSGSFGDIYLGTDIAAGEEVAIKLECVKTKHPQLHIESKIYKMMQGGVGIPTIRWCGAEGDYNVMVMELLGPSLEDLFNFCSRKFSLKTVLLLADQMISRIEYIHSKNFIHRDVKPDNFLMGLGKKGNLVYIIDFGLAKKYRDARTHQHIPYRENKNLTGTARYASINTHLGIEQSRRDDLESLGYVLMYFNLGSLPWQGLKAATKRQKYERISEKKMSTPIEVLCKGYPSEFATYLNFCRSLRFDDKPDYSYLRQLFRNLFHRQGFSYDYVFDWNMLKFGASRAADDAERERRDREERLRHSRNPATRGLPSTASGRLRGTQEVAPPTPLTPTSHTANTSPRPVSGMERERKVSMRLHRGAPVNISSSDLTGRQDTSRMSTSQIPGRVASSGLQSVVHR
Sequence of insulin receptor kinase (P06213 28-1382): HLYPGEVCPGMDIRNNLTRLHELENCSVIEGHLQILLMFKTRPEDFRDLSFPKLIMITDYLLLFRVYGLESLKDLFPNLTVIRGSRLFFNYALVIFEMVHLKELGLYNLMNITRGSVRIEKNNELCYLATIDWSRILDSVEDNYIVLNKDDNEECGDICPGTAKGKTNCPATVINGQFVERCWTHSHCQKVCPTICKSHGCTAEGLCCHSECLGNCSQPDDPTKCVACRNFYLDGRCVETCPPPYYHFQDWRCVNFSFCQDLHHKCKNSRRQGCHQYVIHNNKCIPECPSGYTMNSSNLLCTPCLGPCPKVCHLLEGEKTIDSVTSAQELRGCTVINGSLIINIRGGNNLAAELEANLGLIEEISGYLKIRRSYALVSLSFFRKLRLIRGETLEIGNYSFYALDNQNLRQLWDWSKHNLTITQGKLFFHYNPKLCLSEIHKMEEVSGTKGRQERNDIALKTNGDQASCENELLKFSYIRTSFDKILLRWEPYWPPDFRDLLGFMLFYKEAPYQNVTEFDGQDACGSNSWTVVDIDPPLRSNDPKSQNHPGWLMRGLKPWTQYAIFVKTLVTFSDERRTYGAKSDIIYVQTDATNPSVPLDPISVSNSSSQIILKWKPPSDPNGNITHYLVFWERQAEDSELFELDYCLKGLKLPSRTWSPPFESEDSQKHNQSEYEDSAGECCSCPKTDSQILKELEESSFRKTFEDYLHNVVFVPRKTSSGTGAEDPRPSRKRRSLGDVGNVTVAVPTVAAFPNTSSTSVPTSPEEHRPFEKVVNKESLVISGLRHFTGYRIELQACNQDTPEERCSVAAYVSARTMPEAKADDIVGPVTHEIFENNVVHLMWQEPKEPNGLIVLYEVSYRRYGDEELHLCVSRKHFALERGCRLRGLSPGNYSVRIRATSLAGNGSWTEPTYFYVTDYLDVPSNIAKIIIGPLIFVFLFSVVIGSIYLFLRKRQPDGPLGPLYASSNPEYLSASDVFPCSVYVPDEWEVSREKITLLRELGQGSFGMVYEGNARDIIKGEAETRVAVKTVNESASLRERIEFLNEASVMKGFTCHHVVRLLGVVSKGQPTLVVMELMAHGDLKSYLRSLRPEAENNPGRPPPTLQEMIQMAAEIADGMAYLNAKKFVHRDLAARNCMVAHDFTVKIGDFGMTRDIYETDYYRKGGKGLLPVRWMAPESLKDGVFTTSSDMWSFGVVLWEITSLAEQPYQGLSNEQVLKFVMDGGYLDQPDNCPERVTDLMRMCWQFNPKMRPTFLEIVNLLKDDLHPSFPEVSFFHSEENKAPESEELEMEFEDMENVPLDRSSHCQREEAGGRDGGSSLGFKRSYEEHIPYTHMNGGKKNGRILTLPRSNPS

Row | SMILES | IC50 [1] [µM] | AC50 [2] [µM] | IC50 (CSNK1A1 [3]; [6]) [µM] | other results
1 | CCC(CC)COC(=O)C(C#N)c1nc2ccccc2nc1N1CCNC(C)(C)C1 (stereo not drawn) | 2.13 | 0.159 | – | –
2 | CN1CCN(c2nc3ccccc3nc2C(C#N)C(=O)OCc2ccccc2)CC1 (stereo not drawn) | 56.8 | – | – | –
3 | N#CC(C(=O)OCC1CCCCC1)c1nc2ccccc2nc1N1CCNCC1 (stereo not drawn) | 3.78 | 0.02 | – | –
4 | N#C/C(C(=O)OCC1CCCCC1)=C1/Nc2ccc(-c3ccccc3F)cc2N=C1N1CCNCC1 | 1.9 | 0.043 | – | –
5 | N#C/C(C(=O)OCC1CCCCC1)=C1/Nc2ccc(-c3ccccc3O)cc2N=C1N1CCNCC1 | 0.837 | 0.043 | – | –
6 | N#C/C(C(=O)OCC1CCCCC1)=C1/Nc2ccc(-c3ccc(O)cc3)cc2N=C1N1CCNCC1 | 0.472 | 0.013 | – | –
7 | N#C/C(C(=O)OCC1CCCCC1)=C1/Nc2ccc(-c3cccc(F)c3)cc2N=C1N1CCNCC1 | 2.31 | 0.108 | – | –
8 | N#C/C(C(=O)OCC1CCCCC1)=C1/Nc2ccc(-c3ccc(F)cc3)cc2N=C1N1CCNCC1 | 1.78 | 0.074 | – | –
9 | N#C/C(C(=O)OCC1CCCCC1)=C1/Nc2cc(N)ccc2N=C1N1CCNCC1 | 3.71 | – | – | –
10 | N#C/C(C(=O)OCC1CCCCC1)=C1/Nc2cccc(N)c2N=C1N1CCNCC1 | 5.46 | – | – | –
11 | CN1CCN(c2nc3ccccc3nc2C(C#N)C(=O)OCC(C)(C)C)CC1 (stereo not drawn) [2,2 dimethyl propyl 2-cyano-2-(3-(4-(methylpiperazin-1-yl)quinoxalin-2-yl)acetate] | – | – | 0.715 | –
12 | CC(C)(C)COC(=O)C(C#N)c1nc2ccccc2nc1N1CCNCC1 (stereo not drawn) [2,2 dimethyl propyl 2-cyano-2-(3-(4-(piperazin-1-yl)quinoxalin-2-yl)acetate] | – | – | 0.21 | –
13 | CCC(CC)COC(=O)C(C#N)c1nc2ccccc2nc1N1CCC(N)CC1 (stereo not drawn) [2-ethylbutyl 2-cyano-2-(3-(4-(amino)piperidin-1-yl)quinoxalin-2-yl)acetate] | – | – | 3.32 | –
14 | CCC(CC)COC(=O)C(C#N)c1nc2ccccc2nc1N1CCC(CN)CC1 (stereo not drawn) [2-ethylbutyl 2-cyano-2-(3-(4-(aminomethyl)piperidin-1-yl)quinoxalin-2-yl)acetate] | – | – | 1.75 | –
15 | CCC(CC)COC(=O)C(C#N)c1nc2ccccc2nc1N1CCN(C)CC1 (stereo not drawn) [2-ethylbutyl 2-cyano-2-(3-(4-(methylpiperazin-1-yl)quinoxalin-2-yl)acetate] | – | – | 0.399 | –
16 | CCC(CC)COC(=O)C(C#N)c1nc2ccccc2nc1N1CCNCC1 (stereo not drawn) [2-ethylbutyl 2-cyano-2-(3-(4-(piperazin-1-yl)quinoxalin-2-yl)acetate] | – | – | 0.094 | –
17 | N#CC(C(=O)OCc1ccccc1F)c1nc2ccccc2nc1N1CCNCC1 (stereo not drawn) [2-fluorobenzyl 2-cyano-2-(3-(4-(piperazin-1-yl)quinoxalin-2-yl)acetate] | – | – | 1.88 | –

Row | SMILES | IC50 [1] [µM] | AC50 [2] [µM] | IC50 (CSNK1A1 [3]; [6]) [µM] | other results
18 | N#CC(C(=O)OCc1cccc(N)c1)c1nc2ccccc2nc1N1CCNCC1 (stereo not drawn) [3-aminobenzyl 2-cyano-2-(3-(4-(piperazin-1-yl)quinoxalin-2-yl)acetate] | – | – | 4.13 | –
19 | N#CC(C(=O)OCc1cccc(F)c1)c1nc2ccccc2nc1N1CCNCC1 (stereo not drawn) [3-fluorobenzyl 2-cyano-2-(3-(4-(piperazin-1-yl)quinoxalin-2-yl)acetate] | – | – | 0.268 | –
20 | CN1CCN(c2nc3ccccc3nc2C(C#N)C(=O)OCc2ccc(F)cc2)CC1 (stereo not drawn) [4-fluorobenzyl 2-cyano-2-(3-(4-(methylpiperazin-1-yl)quinoxalin-2-yl)acetate] | – | – | 2.89 | –
21 | N#CC(C(=O)OCc1ccc(F)cc1)c1nc2ccccc2nc1N1CCNCC1 (stereo not drawn) [4-fluorobenzyl 2-cyano-2-(3-(4-(piperazin-1-yl)quinoxalin-2-yl)acetate] | – | – | 1.29 | –
22 | Nc1ncnc2c1c(I)cn2[C@@H]1O[C@H](CO)[C@@H](O)[C@H]1O [5-iodotubercidin, 5-Iodo-7-β-D-ribofuranosyl-7H-pyrrolo[2,3-d]pyrimidin-4-amine, reference compound] | – | – | 0.287 | IC50 (protein kinase A (PKA)): 0.4 to 28 µM; IC50 (CSNK1A1 [3]; [7]): 0.29 µM; IC50 (insulin receptor kinase): 0.4 to 28 µM
23 | Nc1ncnc2c1c(COc1cccc(Cl)c1)nn2C1CCOCC1 [PF4800567, 3-(3-chloro-phenoxymethyl)-1-(tetrahydro-pyran-4-yl)-1H-pyrazolo[3,4-d]pyrimidin-4-ylamine, reference compound] | – | – | 0.857 | IC50 (CSNK1A1 [3]; [7]): 0.86 µM
24 | N#CC(C(=O)OCc1ccccc1)c1nc2ccccc2nc1N1CCC(N)CC1 (stereo not drawn) [benzyl 2-(3-(4-aminopiperidin-1-yl)quinoxalin-2-yl)-2-cyanoacetate] | – | – | 1.89 | –
25 | CNC1CCN(c2nc3ccccc3nc2C(C#N)C(=O)OCc2ccccc2)CC1 (stereo not drawn) [benzyl 2-cyano-2-(3-(4-(methylamino)piperidin-1-yl)quinoxalin-2-yl)acetate] | – | – | 4.39 | –
26 | CCN1CCN(c2nc3ccccc3nc2C(C#N)C(=O)OC2CCCCC2)CC1 (stereo not drawn) [compound 1, cyclohexyl 2-cyano-2-(3-(4-ethylpiperazin-1-yl)quinoxalin-2-yl)acetate] | – | – | 12.9 | cell viability of HT-29 (HT-29): inhibited; Kd (CSNK1D): 3.2 µM; binding specificity in kinome-wide profiling ([4]; 450 kinases tested at a single dose of 10 μM): remarkable specificity for compound binding to CSNK1A1; number of kinases bound ([4]; out of over 400 kinases tested): six; Kd (CSNK1A1 [5]): 1.7 µM; IC50 (CSNK1A1 [3]): 10.1 µM
27 | CCC(CC)COC(=O)C(C#N)c1nc2ccccc2nc1N1CCN(CC)CC1 (stereo not drawn) [compound 3, 2-ethylbutyl 2-cyano-2-(3-(4-ethylpiperazin-1-yl)quinoxalin-2-yl)acetate] | – | – | 5 | –
28 | CN1CCN(c2nc3ccccc3nc2C(C#N)C(=O)OC2CCCCC2)CC1 (stereo not drawn) [compound 4, cyclohexyl 2-cyano-2-(3-(4-methylpiperazin-1-yl)quinoxalin-2-yl)acetate] | – | – | 3.18 | –
29 | CN1CCN(c2nc3ccccc3nc2C(C#N)C(=O)OC2CCCCC2)CC1 (stereo not drawn) [drawing 113] | 10000 | 3.5 | – | –
30 | CN1CCN(c2nc3ccccc3nc2C(C#N)C(=O)OCc2ccc(F)cc2)CC1 (stereo not drawn) [drawing 146] | – | 2.04 | – | –
31 | CNC1CCN(c2nc3ccccc3nc2C(C#N)C(=O)OCc2ccccc2)CC1 (stereo not drawn) [drawing 147] | – | 3.65 | – | –
32 | CCC(CC)COC(=O)C(C#N)c1nc2ccccc2nc1N1CCNCC1 (stereo not drawn) [drawing 149] | – | 1.94 | – | –
33 | CCN1CCN(c2nc3ccccc3nc2C(C#N)C(=O)OC2CCCCC2)CC1 (stereo not drawn) [drawing 166] | 17.4 | – | – | –
